Measured values from patent publication US10059721B2, “Substituted thieno[3,2-b]pyrazines for inhibiting cancer cell proliferation and inducing cancer cell apoptosis” (DONGGUK UNIVERSITY INDUSTRY-ACADEMIC COOPERATION FOUNDATION, priority 2014, dated 2018).

Experiments:
Format in all cases: cell-based
[1] = tested on: MDA-MB-231 (breast cancer) cell line; experiment: Cell growth inhibition experiment (SRB), MDA-MB-231; details: Homo sapiens, incubated for 96 hours, read-out: IC50 (μM) of cancer cell lines MDA-MB-231
Method: (§1) The cell lines below were used in order to confirm the efficacy of the compounds synthesized in Examples 1 to 27. Human PANC-1 (pancreatic cancer) and MDA-MB-231 (breast cancer) cell lines were obtained from American Type Culture Collection (ATCC; Manassas, Va.); and HN31 (head and neck cancer) and UMRC2 (kidney cancer) cell lines were secured from the United States National Institutes of Health (Bethesda, Md.). The MDA-MB-231, UMRC2, HN31, and PANC-1 cell lines were cultured in Dulbecco modified Eagle medium (DMEM) containing FBS (10%), HEPES (10 mM), penicillin (100 U/mL), and streptomycin (100 μg/mL). All cell lines were cultured in an incubator (37° C., 5% CO2).
(§2) The 4-(aryl)-N-(2-alkoxythieno[3,2-b]pyrazin-3-yl)-piperazin-1-carboxamide derivative compounds synthesized according to Examples 1 to 27 of the present invention were treated with various human tissue-derived cancer cell lines cultured according to Experimental Example 1, and thus the inhibitory effect of the growth of human cancer cells was confirmed. The cell growth inhibition experiment was conducted using sulforhodamine B (SRB) technique (Skehan et al., J. National Cancer Institute, 1990, 82: 1107-1112). Specifically, each cell line was seeded in a 96-well plate at a density of 2 to 3×10^3 cells/well, cultured overnight, and then treated with the 4-(aryl)-N-(2-alkoxythieno[3,2-b]pyrazin-3-yl)-piperazin-1-carboxamide derivative compounds of the present invention. The experiment was repeated 3 times for each compound. Cells treated with each compound were additionally incubated for 96 hours, fixed with 10% trichloroacetic acid (TCA), and then left at 4° C. for 1 hour. The resultant was washed 3 times with distilled water. Thereafter, each cell was treated with 0.4% sulforhodamine B dissolved in 1% acetic acid, stained for 30 minutes, and then washed 4 times with 1% acetic acid. The resultant was dried in the air. After shaking the resultant in Tris solution (10 mM) for 5 minutes, the absorbance was measured at 530 nm using a Benchmark Plus Microplate reader (Bio-Rad Laboratories, Hercules, Calif.).
(§3) In order to convert the OD530 value to the number of viable cells per each well, the measured OD530 value was compared to the standard OD530-vs.-cell number curve of each cell line. The percent survival was calculated using the following formula: % survival=Nlive cells(test)/Nlive cells(control)×100
(§4) IC50 values were calculated by nonlinear regression analysis.

[2] = tested on: UMRC2 (kidney cancer) cell line; experiment: Cell growth inhibition experiment (SRB), UMRC2; details: Homo sapiens, incubated for 96 hours, read-out: IC50 (μM) of cancer cell lines UMRC2
Method: as §1, §2, §3, §4

[3] = tested on: PANC-1 (pancreatic cancer) cell line; experiment: Cell growth inhibition experiment (SRB), PANC-1; details: Homo sapiens, incubated for 96 hours, read-out: IC50 (μM) of cancer cell lines PANC-1
Method: as §1, §2, §3, §4

[4] = tested on: HN31 (head and neck cancer) cell line; experiment: Cell growth inhibition experiment (SRB), HN31; details: Homo sapiens, incubated for 96 hours, read-out: IC50 (μM) of cancer cell lines HN31
Method: as §1, §2, §3, §4

A549 = experiment: Cell growth inhibition experiment (SRB), A549; details: Homo sapiens, incubated for 96 hours, read-out: IC50 (μM) of cancer cell lines A549
Method: as §2, §3, §4

HEK293 = experiment: Cell growth inhibition experiment (SRB), HEK293; details: Homo sapiens, incubated for 96 hours, read-out: IC50 (μM) of cancer cell lines HEK293
Method: as §2, §3, §4

HUVEC = experiment: Cell growth inhibition experiment (SRB), HUVEC; details: Homo sapiens, incubated for 96 hours, read-out: IC50 (μM) of cancer cell lines HUVEC
Method: as §2, §3, §4

HT29 = experiment: Cell growth inhibition experiment (SRB), HT29; details: Homo sapiens, HT-29, incubated for 96 hours, read-out: IC50 (μM) of cancer cell lines HT29
Method: as §2, §3, §4

SK-OV-3 = experiment: Cell growth inhibition experiment (SRB), SK-OV-3; details: Homo sapiens, incubated for 96 hours, read-out: IC50 (μM) of cancer cell lines SK-OV-3
Method: as §2, §3, §4

SMILES	IC50 [1] [µM]	IC50 [2] [µM]	IC50 [3] [µM]	IC50 [4] [µM]	IC50 (A549) [µM]	IC50 (HT29) [µM]	IC50 (SK-OV-3) [µM]	IC50 (HEK293) [µM]	IC50 (HUVEC) [µM]
Cc1cc(C)cc(N2CCN(C(=O)Nc3nc4sccc4nc3OC(C)C)CC2)c1 [Example 17, 4-(3,5-dimethylphenyl)-N-(2-isopropoxythieno[3,2-b]pyrazin-3-yl)piperazin-1-carboxamide]	< 2.5	< 2.5	< 2.5	< 2.5	< 2.5	< 2.5	< 2.5	< 2.5	< 2.5
CC(C)Oc1nc2ccsc2nc1NC(=O)N1CCN(c2cc(F)cc(F)c2)CC1 [Example 18, 4-(3,5-difluorophenyl)-N-(2-isopropoxythieno[3,2-b]pyrazin-3-yl)piperazin-1-carboxamide]	< 2.5	< 2.5	< 2.5	< 2.5	< 2.5	< 2.5	< 2.5	< 2.5	< 2.5
COc1cc(F)cc(N2CCN(C(=O)Nc3nc4sccc4nc3OC)CC2)c1 [Example 22, 4-(3-fluoro-5-methoxyphenyl)-N-(2-methoxythieno[3,2-b]pyrazin-3-yl)piperazin-1-carboxamide]	0.52	0.21	0.63	0.45	2.21	1.12	1.36	1.12	1.36
COc1nc2ccsc2nc1NC(=O)N1CCN(c2cc(C)cc(F)c2)CC1 [Example 23, 4-(3-fluoro-5-methylphenyl)-N-(2-methoxythieno[3,2-b]pyrazin-3-yl)piperazin-1-carboxamide]	0.36	< 2.5	0.58	0.28	0.63	0.28	0.36	0.35	0.45
COc1nc2ccsc2nc1NC(=O)N1CCN(c2cccc(OC(F)(F)F)c2)CC1 [Example 24, N-(2-methoxythieno[3,2-b]pyrazin-3-yl)-4-(3-(trifluoromethoxy)phenyl)piperazin-1-carboxamide]	0.12	0.36	0.44	< 2.5	0.87	0.36	0.12	0.25	< 2.5
COc1nc2ccsc2nc1NC(=O)N1CCN(c2cc(F)cc(C(F)(F)F)c2)CC1 [Example 27, 4-(3-fluoro-5-(trifluoromethyl)phenyl)-N-(2-methoxythieno[3,2-b]pyrazin-3-yl)piperazin-1-carboxamide]	< 2.5	< 2.5	< 2.5	< 2.5	< 2.5	< 2.5	< 2.5	< 2.5	< 2.5

Further lines, with some results ahead:

IC50 [1] [µM]	IC50 [2] [µM]	IC50 [3] [µM]	IC50 [4] [µM]	IC50 (A549) [µM]	IC50 (HT29) [µM]	IC50 (SK-OV-3) [µM]	SMILES	IC50 (HEK293) [µM]	IC50 (HUVEC) [µM]
< 2.5	0.25	0.58	1.12	1.52	0.71	< 2.5	COc1nc2ccsc2nc1NC(=O)N1CCN(c2cc(C)cc(OC(F)(F)F)c2)CC1 [Example 19, N-(2-methoxythieno[3,2-b]pyrazin-3-yl)-4-(3-methyl-5-(trifluoromethoxy)phenyl)piperazin-1-carboxamide]	1.23	0.68
0.25	< 2.5	0.36	0.36	0.15	0.62	0.22	COc1nc2ccsc2nc1NC(=O)N1CCN(c2cc(OC(F)(F)F)cc(C(F)(F)F)c2)CC1 [Example 20, N-(2-methoxythieno[3,2-b]pyrazin-3-yl)-4-(3-(trifluoromethoxy)-5-(trifluoromethyl)phenyl)piperazin-1-carboxamide]	0.12	0.21
2.21	1.74	2.12	< 2.5	1.63	1.85	1.85	COc1cc(C)cc(N2CCN(C(=O)Nc3nc4sccc4nc3OC)CC2)c1 [Example 21, 4-(3-methoxy-5-methylphenyl)-N-(2-methoxythieno[3,2-b]pyrazin-3-yl)piperazin-1-carboxamide]	1.25	< 2.5
0.15	< 2.5	0.08	0.17	0.22	0.25	0.63	COc1cc(OC(F)(F)F)cc(N2CCN(C(=O)Nc3nc4sccc4nc3OC)CC2)c1 [Example 25, 4-(3-methoxy-5-(trifluoromethoxy)phenyl)-N-(2-methoxythieno[3,2-b]pyrazin-3-yl)piperazin-1-carboxamide]	0.36	0.13
< 2.5	< 2.5	< 2.5	< 2.5	< 2.5	< 2.5	< 2.5	COc1nc2ccsc2nc1NC(=O)N1CCN(c2cc(F)cc(OC(F)(F)F)c2)CC1 [Example 26, 4-(3-fluoro-5-(trifluoromethoxy)phenyl)-N-(2-methoxythieno[3,2-b]pyrazin-3-yl)piperazin-1-carboxamide]	< 2.5	< 2.5
